Source: paper PMC5045383 (Oncotarget, 2016)

Columns and labels:
[1] = test system: MOLM-13 (FLT3-ITD/wt); assay: Cell proliferation assay (CellTiter-Glo); format: cell-based, human
Protocol: (§1) The human AML cell lines MV4-11, U937, OCI-AML-3 were purchased from the American Type Culture Collection (ATCC) (Manassas, VA, USA). The FLT3-ITD-expressing lines, MOLM-13, MOLM-14, were provided by Dr. Scott Armstrong, Dana Farber Cancer Institute (DFCI), Boston, MA. The wt FLT3-expressing AML line, NB4 (KRAS A18D), was obtained from Dr. Gary Gilliland. […] MV4-11 was cultured in IDMEM media (Corning, USA) with 10% FBS and supplemented with 2% L-glutamine and 1% penicillin/streptomycin. OCI-AML-3 was cultured in α-MEM media (Corning, USA) with 10% FBS and supplemented with 2% L-glutamine and 1% penicillin/streptomycin. All cell lines were maintained in culture media at 37°C with 5% CO2.
(§2) Cells were grown in 96-well culture plates (3000/well). […] Cell proliferation was determined after 72 hours drug treatment. […] Cell viability was measured with the CellTiter–Glo assay (Promega, USA), according to the manufacturer's instructions, and luminescence was measured in a multi-label reader (Envision, PerkinElmer, USA). […] GI50 values were calculated using Prism 5.0 (GraphPad Software, San Diego, CA).

[2] = test system: MOLM-14 (FLT3-ITD/wt); assay: Cell proliferation assay (CellTiter-Glo); format: cell-based, human
Protocol: as §1, §2

[3] = test system: MV4-11 (FLT3-ITD); assay: Cell proliferation assay (CellTiter-Glo); format: cell-based, human
Protocol: as §1, §2

[4] = test system: NB4 (FLT3-wt); assay: Cell proliferation assay (CellTiter-Glo); format: cell-based, human; conditions: 72 hours
Protocol: as §1, §2

[5] = test system: OCI-AML-3 (FLT3-wt); assay: Cell proliferation assay (CellTiter-Glo); format: cell-based, human; conditions: 72 hours
Protocol: as §1, §2

[6] = test system: U937 (FLT3-wt); assay: Cell proliferation assay (CellTiter-Glo); format: cell-based, human; conditions: 72 hours
Protocol: as §1, §2

[7] = test system: BaF3-FLT3-D835Y; assay: Anti-proliferation, BaF3 isogenic cell lines; format: cell-based
Protocol: (§3) Cells were grown in 96-well culture plates (3000/well). […] Cell proliferation was determined after 72 hours drug treatment. […] Cell viability was measured with the CellTiter–Glo assay (Promega, USA), according to the manufacturer's instructions, and luminescence was measured in a multi-label reader (Envision, PerkinElmer, USA). Data were normalized to control groups (DMSO) and represented by the mean of three independent measurements with standard error < 20%. GI50 values were calculated using Prism 5.0 (GraphPad Software, San Diego, CA).
(§4) Retroviral constructs for BaF3-FLT3 mutants were made based on the pMSCVpuro (Clontech) backbone. For TEL-FLT3 vector, the first 1 kb of human TEL gene with an artificial myristoylation sequence ([…]) was cloned into pMSCVpuro retroviral vector, followed by a 3xFLAG tag sequence and a stop codon. Then the kinase domain coding sequence of FLT3 was inserted in-frame between TEL and 3× FLAG sequences. For full-length expression vectors, the coding sequences of FLT3 variants were directly cloned in pMSCVpuro vector with a 3X FLAG tag at the C-terminal end. All mutagenesis studies were performed using the QuikChange Site-Directed Mutagenesis Kit (Stratagene) following the manufacturer's instructions. Retrovirus was packaged in HEK293T cells by transfecting FLT3-containing MSCV vectors together with two helper plasmids, virus supernatants were harvested 48 hours after transfection and filtered before infection. Then BaF3 cells were infected with harvested virus supernatants using spinoculation protocol and stable cell lines were obtained by puromycin selection for 48 hours. The IL-3 concentrations in the culture medium were gradually withdrawn until cells were able to grow in the absence of IL-3.

[8] = test system: BaF3-FLT3-ITD-D835Y; assay: Anti-proliferation, BaF3 isogenic cell lines; format: cell-based
Protocol: as §3, §4

[9] = test system: BaF3-FLT3-ITD-F691L; assay: Anti-proliferation, BaF3 isogenic cell lines; format: cell-based
Protocol: as §3, §4

[10] = test system: BaF3-FLT3-ITD; assay: Anti-proliferation, BaF3 isogenic cell lines; format: cell-based
Protocol: as §3, §4

[11] = test system: BaF3-TEL-FLT3-wt; assay: Anti-proliferation, BaF3 isogenic cell lines; format: cell-based
Protocol: as §3, §4

[12] = test system: BaF3; assay: Anti-proliferation, parental BaF3 cells; format: cell-based
Protocol: as §3
Retroviral constructs for BaF3-FLT3 mutants were made based on the pMSCVpuro (Clontech) backbone. For TEL-FLT3 vector, the first 1 kb of human TEL gene with an artificial myristoylation sequence ([…]) was cloned into pMSCVpuro retroviral vector, followed by a 3xFLAG tag sequence and a stop codon. Then the kinase domain coding sequence of FLT3 was inserted in-frame between TEL and 3× FLAG sequences. For full-length expression vectors, the coding sequences of FLT3 variants were directly cloned in pMSCVpuro vector with a 3X FLAG tag at the C-terminal end. All mutagenesis studies were performed using the QuikChange Site-Directed Mutagenesis Kit (Stratagene) following the manufacturer's instructions. […]

[13] = test system: MOLM14 cells; assay: Apoptosis effect examination (PARP, Caspase-3 immunoblot); format: cell-based, human; conditions: MOLM14, 24 hours; more pronounced at 3 μM
Text: (§5) Cells were then washed in PBS and lysed in cell lysis buffer. PARP, Caspase-3, GAPDH antibodies (Cell signaling Technology) were used for immunoblotting.

[14] = test system: MV4-11 cells; assay: as above; format: cell-based, human; conditions: MV4-11, 24 hours; more significantly at 1 μM
Text: as §5

[15] = test system: FLT3-ITD-positive AML patient primary cells; assay: Anti-proliferation, AML patient primary cells; format: cell-based, human; conditions: at 1 μM; compared to normal bone marrow cells
Protocol: Mononuclear cells were isolated from samples from AML patients identified as harboring mutant FLT3. Cells were tested in liquid culture (DMEM, supplemented with 20% FBS) in the presence of different concentrations of inhibitors. All blood and bone marrow samples from AML patients were obtained under approval of the Dana Farber Cancer Institute Institutional Review Board. The ethics committees approved the consent procedure. All studies were performed with ACUC approved protocols at DFCI.

In the case of `Cc1[nH]nc2ccc(-c3cncc(OC[C@@H](N)Cc4ccccc4)c3)cc12` [A674563], the GI50 ([1]; MOLM-13 (FLT3-ITD/wt), 72 hours, Table 1) is reported as 60 nM, the GI50 ([1]; MOLM-13+FL(1 ng/mL)) is reported as 61 nM and the GI50 ([1]; MOLM-13+FL(5 ng/mL)) is reported as 58 nM. The GI50 ([1]; MOLM-13+FL(10 ng/mL)) was 59 nM, the GI50 ([1]; MOLM-13, no FLT3 ligand, Table 3) was 60 nM and the GI50 ([2]; MOLM-14 (FLT3-ITD/wt), 72 hours, Table 1) was 180 nM. The GI50 ([2]; MOLM-14+FL(1 ng/mL)) was 210 nM, the GI50 ([2]; MOLM-14+FL(5 ng/mL)) was 190 nM and the GI50 ([2]; MOLM-14+FL(10 ng/mL)) was 180 nM. The GI50 ([2]; MOLM-14, no FLT3 ligand, Table 3) was 180 nM, the GI50 ([3]; MV4-11 (FLT3-ITD), 72 hours, Table 1) was 75 nM and the GI50 ([3]; MV4-11+FL(10 ng/mL)) was 78 nM. It also gave a GI50 ([3]; MV4-11, no FLT3 ligand, Table 3) of 75 nM, a GI50 [4] of 480 nM and a GI50 [5] of 670 nM. It also gave a GI50 [6] of 520 nM, a GI50 [7] of 45 nM and a GI50 [8] of 420 nM. The GI50 [9] was 430 nM, the GI50 [10] was 88 nM and the GI50 [11] was 1000 nM. For the same compound, the GI50 [12] was 1600 nM, the “concentration at which induction of apoptosis was evident” value [13] was 1 µM and the “concentration at which apoptosis was induced” value [14] was 0.3 µM. For the same compound, the “anti-proliferation activity in patient primary cells” value [15] was “potent anti-proliferation activity”.
